In patent US9539260B2, “Dihydro-benzo-oxazine and dihydro-pyrido-oxazine derivatives” (Novartis AG, priority 2012, dated 2017) one finds IC50 data, which are given here for 25 molecules.

For orientation: IC50 means the concentration that gives 50% inhibition. Read a low IC50 as greater potency in that assay.

In one experiment the target is PI3K alpha (Homo sapiens (Human), UniProt P42336). The experiment is described as follows: Enzymatic PI3K alpha isoform inhibition (lipid kinase activity, Kinase-Glo luminescence). Type of experiment: biochemical. As to conditions: Enzymatic assay. Summed up: (§1)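 IC50s derive from 4-parameter logistic fits of % inhibition across 8 concentrations (usually 10 to 0.003 μM). Lipid kinase reaction: PI3K (10 nM) plus phosphatidylinositol (5 μg/mL) started with 2 μM ATP, stopped near 50% ATP depletion; leftover ATP quantified by Kinase-Glo luminescence.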
Sequence of PI3K alpha (P42336 other isoform, or with tags, fused parts or gaps): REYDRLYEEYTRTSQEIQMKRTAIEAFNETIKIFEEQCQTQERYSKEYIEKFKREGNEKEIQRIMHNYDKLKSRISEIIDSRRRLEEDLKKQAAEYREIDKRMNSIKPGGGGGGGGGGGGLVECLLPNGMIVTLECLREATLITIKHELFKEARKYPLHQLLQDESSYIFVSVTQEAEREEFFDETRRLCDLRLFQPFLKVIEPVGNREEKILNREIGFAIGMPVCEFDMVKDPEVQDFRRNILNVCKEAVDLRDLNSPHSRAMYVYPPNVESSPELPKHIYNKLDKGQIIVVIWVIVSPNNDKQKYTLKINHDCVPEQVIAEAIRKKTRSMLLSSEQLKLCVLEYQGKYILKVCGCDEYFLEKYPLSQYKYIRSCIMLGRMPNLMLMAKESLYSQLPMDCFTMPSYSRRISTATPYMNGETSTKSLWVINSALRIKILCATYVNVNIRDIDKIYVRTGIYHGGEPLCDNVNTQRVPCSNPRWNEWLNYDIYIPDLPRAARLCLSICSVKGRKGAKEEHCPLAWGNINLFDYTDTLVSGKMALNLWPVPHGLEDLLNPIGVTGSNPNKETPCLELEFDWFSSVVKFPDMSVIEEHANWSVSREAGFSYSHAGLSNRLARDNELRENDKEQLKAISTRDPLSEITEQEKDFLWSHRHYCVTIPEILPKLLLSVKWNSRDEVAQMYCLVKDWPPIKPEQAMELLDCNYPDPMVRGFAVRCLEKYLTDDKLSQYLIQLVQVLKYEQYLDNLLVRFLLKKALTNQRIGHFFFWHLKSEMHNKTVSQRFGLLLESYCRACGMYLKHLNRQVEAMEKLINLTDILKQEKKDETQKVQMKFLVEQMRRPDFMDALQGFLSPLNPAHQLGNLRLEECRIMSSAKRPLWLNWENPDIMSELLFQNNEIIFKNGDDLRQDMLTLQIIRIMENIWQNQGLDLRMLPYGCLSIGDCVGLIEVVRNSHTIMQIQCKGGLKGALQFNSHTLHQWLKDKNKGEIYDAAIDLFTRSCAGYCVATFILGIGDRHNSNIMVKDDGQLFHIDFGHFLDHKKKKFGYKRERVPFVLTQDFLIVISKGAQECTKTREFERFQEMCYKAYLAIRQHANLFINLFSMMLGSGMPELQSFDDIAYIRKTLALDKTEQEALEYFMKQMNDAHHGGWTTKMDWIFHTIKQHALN
A general note: Kinase-Glo measures the ATP left after a reaction by luminescence.

In a further experiment the target is PI3K delta (Homo sapiens (Human), UniProt O00329). The experiment can be described thus: Enzymatic PI3K delta isoform inhibition (lipid kinase activity, Kinase-Glo luminescence). The class given is biochemical. The settings on record: Enzymatic assay. Summed up:
as §1

Structures are written as SMILES.

Sequence of PI3K delta (O00329 other isoform, or with tags, fused parts or gaps linker GGGGGG): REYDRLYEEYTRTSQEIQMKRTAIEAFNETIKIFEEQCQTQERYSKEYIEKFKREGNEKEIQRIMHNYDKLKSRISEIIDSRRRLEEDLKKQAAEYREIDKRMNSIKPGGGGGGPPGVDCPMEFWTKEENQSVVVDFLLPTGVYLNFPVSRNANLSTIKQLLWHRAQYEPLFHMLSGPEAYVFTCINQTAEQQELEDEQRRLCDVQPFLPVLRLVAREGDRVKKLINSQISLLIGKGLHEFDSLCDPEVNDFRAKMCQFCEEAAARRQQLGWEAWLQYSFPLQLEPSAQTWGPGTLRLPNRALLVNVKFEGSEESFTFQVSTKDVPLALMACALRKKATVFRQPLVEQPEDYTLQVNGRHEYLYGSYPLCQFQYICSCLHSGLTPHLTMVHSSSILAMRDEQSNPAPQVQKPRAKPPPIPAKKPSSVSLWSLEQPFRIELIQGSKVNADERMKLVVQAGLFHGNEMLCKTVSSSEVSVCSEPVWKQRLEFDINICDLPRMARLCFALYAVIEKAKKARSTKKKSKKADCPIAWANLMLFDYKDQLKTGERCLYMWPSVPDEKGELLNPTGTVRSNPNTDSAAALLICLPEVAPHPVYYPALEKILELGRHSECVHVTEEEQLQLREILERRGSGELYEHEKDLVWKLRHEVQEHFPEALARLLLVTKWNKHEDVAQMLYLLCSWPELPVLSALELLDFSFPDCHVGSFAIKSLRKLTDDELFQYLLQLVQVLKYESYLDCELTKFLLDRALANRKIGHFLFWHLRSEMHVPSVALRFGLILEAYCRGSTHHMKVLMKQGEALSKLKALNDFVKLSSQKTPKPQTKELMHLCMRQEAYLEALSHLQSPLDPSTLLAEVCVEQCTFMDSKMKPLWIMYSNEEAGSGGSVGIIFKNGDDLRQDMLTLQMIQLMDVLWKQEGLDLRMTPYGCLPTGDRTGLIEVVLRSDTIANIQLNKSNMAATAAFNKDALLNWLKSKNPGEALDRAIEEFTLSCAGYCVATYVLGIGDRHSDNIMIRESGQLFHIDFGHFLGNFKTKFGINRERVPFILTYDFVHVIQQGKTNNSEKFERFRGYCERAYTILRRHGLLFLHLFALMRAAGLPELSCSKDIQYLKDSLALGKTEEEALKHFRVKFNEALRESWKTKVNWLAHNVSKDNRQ

Regarding `CCC(=O)N1C[C@H](Oc2ccc3c(c2)N(c2cnc(OC)c(C#N)c2)CCO3)CO1` [Example D25, 2-Methoxy-5-[6-((S)-2-propionyl-isoxazolidin-4-yloxy)-2,3-dihydro-benzo[1,4]oxazin-4-yl]-nicotinonitrile], the figures for the IC50 at PI3K alpha and on PI3K delta were over 9100 nM and 2690 nM, respectively.

In the case of `COc1ncc(N2CCOc3ccc(O[C@H]4CON(C(=O)c5cn(C)cn5)C4)cc32)cc1C#N` [Example D26, 2-Methoxy-5-{6-[(R)-2-(1-methyl-1H-imidazole-4-carbonyl)-isoxazolidin-4-yloxy]-2,3-dihydro-benzo[1,4]oxazin-4-yl}-nicotinonitrile], the IC50 on PI3K alpha worked out at 1240 nM; on PI3K delta, 28 nM.

Take `COc1ncc(N2CCOc3ccc(O[C@H]4CCN(C(=O)c5cnn(C)c5)C4)cc32)cc1C#N` [Example D27, 2-Methoxy-5-{6-[(S)-1-(1-methyl-1H-pyrazole-4-carbonyl)-pyrrolidin-3-yloxy]-2,3-dihydro-benzo[1,4]oxazin-4-yl}-nicotinonitrile]: the IC50 against PI3K alpha worked out at 1570 nM; on PI3K delta it was 64 nM.

For `COc1ccc(N2CCOc3ccc(O[C@H]4CCN(C(=O)C5CCOCC5)C4)cc32)cn1` [Example D30, {(S)-3-[4-(6-Methoxy-pyridin-3-yl)-3,4-dihydro-2H-benzo[1,4]oxazin-6-yloxy]-pyrrolidin-1-yl}-(tetrahydro-pyran-4-yl)-methanone], the IC50 against PI3K alpha worked out at 5150 nM; at PI3K delta, 127 nM.

Regarding `COc1ncc(N2CCOc3ccc(O[C@H]4CCN(C(=O)c5cncn5C)C4)cc32)cc1C#N` [Example D31, 2-Methoxy-5-{6-[(S)-1-(3-methyl-3H-imidazole-4-carbonyl)-pyrrolidin-3-yloxy]-2,3-dihydro-benzo[1,4]oxazin-4-yl}-nicotinonitrile], the IC50 against PI3K alpha was found to be 135 nM; at PI3K delta it was 9 nM.

For `COc1ncc(N2CCOc3ccc(O[C@H]4CCN(C(=O)c5cnco5)C4)cc32)cc1C#N` [Example D32, 2-Methoxy-5-{6-[(S)-1-(oxazole-5-carbonyl)-pyrrolidin-3-yloxy]-2,3-dihydro-benzo[1,4]oxazin-4-yl}-nicotinonitrile], the IC50 came to 94 nM on PI3K alpha and 9 nM on PI3K delta.

For `COc1ncc(N2CCOc3ccc(O[C@H]4CCN(C(=O)c5ocnc5C)C4)cc32)cc1C#N` [Example D33, 2-Methoxy-5-{6-[(S)-1-(4-methyl-oxazole-5-carbonyl)-pyrrolidin-3-yloxy]-2,3-dihydro-benzo[1,4]oxazin-4-yl}-nicotinonitrile], the IC50 on PI3K alpha is 117 nM; at PI3K delta, 8 nM.

As to `COc1ncc(N2CCOc3ccc(O[C@H]4CCN(C(=O)N5CCOCC5)C4)cc32)cc1C#N` [Example D34, 2-Methoxy-5-{6-[(S)-1-(morpholine-4-carbonyl)-pyrrolidin-3-yloxy]-2,3-dihydro-benzo[1,4]oxazin-4-yl}-nicotinonitrile], the IC50 against PI3K alpha is 273 nM; at PI3K delta, 9 nM.

As to `COc1ncc(N2CCOc3ccc(O[C@H]4CCN(C(=O)Cc5cn(C)cn5)C4)cc32)cc1C#N` [Example D37, 2-Methoxy-5-(6-{(S)-1-[2-(1-methyl-1H-imidazol-4-yl)-acetyl]-pyrrolidin-3-yloxy}-2,3-dihydro-benzo[1,4]oxazin-4-yl)-nicotinonitrile], the IC50 is 298 nM at PI3K alpha and 127 nM against PI3K delta.

For `COc1ncc(N2CCOc3ccc(O[C@H]4CCN(C(=O)C5CCNCC5)C4)cc32)cc1C#N` [Example D38, 2-Methoxy-5-{6-[(S)-1-(piperidine-4-carbonyl)-pyrrolidin-3-yloxy]-2,3-dihydro-benzo[1,4]oxazin-4-yl}-nicotinonitrile], the figures for the IC50 against PI3K alpha and against PI3K delta were 516 nM and 18 nM, respectively.

As to `COc1ncc(N2CCOc3ccc(O[C@H]4CCN(C(=O)[C@H]5CCNC5)C4)cc32)cc1C#N` [Example D39, 2-methoxy-5-{6-[(S)-1-((S)-pyrrolidine-3-carbonyl)-pyrrolidin-3-yloxy]-2,3-dihydro-benzo[1,4]oxazin-4-yl}-nicotinonitrile], the values for the IC50 at PI3K alpha and against PI3K delta were 987 nM and 36 nM, respectively.

Regarding `COc1ncc(N2CCOc3ccc(O[C@H]4CCN(C(=O)[C@@H]5CCNC5)C4)cc32)cc1C#N` [Example D40, 2-methoxy-5-{6-[(S)-1-((R)-pyrrolidine-3-carbonyl)-pyrrolidin-3-yloxy]-2,3-dihydro-benzo[1,4]oxazin-4-yl}-nicotinonitrile], the values for the IC50 against PI3K alpha and against PI3K delta were 704 nM and 25 nM, respectively.

For `COc1ncc(N2CCOc3cnc(O[C@H]4CCN(C(=O)C5CCS(=O)(=O)CC5)C4)cc32)cc1C(F)(F)F` [Example E6, (1,1-Dioxo-hexahydro-1lambda*6*-thiopyran-4-yl)-{(S)-3-[1-(6-methoxy-5-trifluoromethyl-pyridin-3-yl)-2,3-dihydro-1H-pyrido[3,4-b][1,4]oxazin-7-yloxy]-pyrrolidin-1-yl}-methanone], the IC50 against PI3K alpha came to 341 nM; on PI3K delta, 9 nM.

Take `COc1ncc(N2CCOc3cnc(O[C@H]4CCN(C(=O)c5cn(C)cn5)C4)cc32)cc1C(F)(F)F` [Example E7, {(S)-3-[1-(6-Methoxy-5-trifluoromethyl-pyridin-3-yl)-2,3-dihydro-1H-pyrido[3,4-b][1,4]oxazin-7-yloxy]-pyrrolidin-1-yl}-(1-methyl-1H-imidazol-4-yl)-methanone]: the IC50 turned out to be 133 nM on PI3K alpha and 22 nM on PI3K delta.

As for `Cc1cc(N2CCOc3cnc(O[C@H]4CCN(C(=O)C5CCOCC5)C4)cc32)cnc1OC(F)F` [Example E9, {(S)-3-[1-(6-Difluoromethoxy-5-methyl-pyridin-3-yl)-2,3-dihydro-1H-pyrido[3,4-b][1,4]oxazin-7-yloxy]pyrrolidin-1-yl}-(tetrahydro-pyran-4-yl)-methanone], the figures for the IC50 at PI3K alpha and at PI3K delta were 593 nM and 7 nM, respectively.

On to `Cc1cc(N2CCOc3cnc(O[C@H]4CCN(C(=O)c5cn(C)cn5)C4)cc32)cnc1OC(F)F` [Example E10, {(S)-3-[1-(6-Difluoromethoxy-5-methyl-pyridin-3-yl)-2,3-dihydro-1H-pyrido[3,4-b][1,4]oxazin-7-yloxy]-pyrrolidin-1-yl}-(1-methyl-1H-imidazol-4-yl)-methanone], for which the IC50 was found to be 229 nM at PI3K alpha and 13 nM on PI3K delta.

On to `Cc1cc(N2CCOc3cnc(O[C@H]4CCN(C(=O)C5CC5)C4)cc32)cnc1OC(F)F` [Example E11, Cyclopropyl-{(S)-3-[1-(6-difluoromethoxy-5-methyl-pyridin-3-yl)-2,3-dihydro-1H-pyrido[3,4-b][1,4]oxazin-7-yloxy]-pyrrolidin-1-yl}-methanone], for which the IC50 on PI3K alpha is 377 nM; against PI3K delta, under 3 nM.

As for `COc1ncc(N2CCOc3cnc(O[C@H]4CCN(C(=O)C5CCS(=O)(=O)CC5)C4)cc32)cc1F` [Example F2, (1,1-Dioxo-hexahydro-1lambda*6*-thiopyran-4-yl)-{(S)-3-[1-(5-fluoro-6-methoxy-pyridin-3-yl)-2,3-dihydro-1H-pyrido[3,4-b][1,4]oxazin-7-yloxy]-pyrrolidin-1-yl}-methanone], the IC50 was determined as 725 nM at PI3K alpha and 5 nM against PI3K delta.

Consider `COc1ncc(N2CCOc3cnc(O[C@H]4CCN(C(=O)C5CCOCC5)C4)cc32)cc1C#N` [Example F4, 2-Methoxy-5-{7-[(S)-1-(tetrahydro-pyran-4-carbonyl)-pyrrolidin-3-yloxy]-2,3-dihydro-pyrido[3,4-b][1,4]oxazin-1-yl}-nicotinonitrile], for which the IC50 against PI3K alpha came out at 577 nM; against PI3K delta it was 3 nM.

For the molecule `COc1ncc(N2CCOc3cnc(O[C@H]4CCN(C(=O)c5cn(C)cn5)C4)cc32)cc1C#N` [Example F5, 2-Methoxy-5-{7-[(S)-1-(1-methyl-1H-imidazole-4-carbonyl)-pyrrolidin-3-yloxy]-2,3-dihydro-pyrido[3,4-b][1,4]oxazin-1-yl}-nicotinonitrile], the results for the IC50 on PI3K alpha and at PI3K delta were 444 nM and 25 nM, respectively.

Take `Cc1cc(N2CCOc3cnc(O[C@H]4CCN(C(=O)C5CCOCC5)C4)cc32)cnc1S(C)(=O)=O` [Example F6, {(S)-3-[1-(6-Methanesulfonyl-5-methyl-pyridin-3-yl)-2,3-dihydro-1H-pyrido[3,4-b][1,4]oxazin-7-yloxy]-pyrrolidin-1-yl}-(tetrahydro-pyran-4-yl)-methanone]: the IC50 on PI3K alpha amounted to 783 nM; at PI3K delta, 3 nM.

`COc1ncc(N2CCOc3cnc(O[C@H]4CCN(C(=O)C5CCOCC5)C4)cc32)cc1C(F)F` [Example F8, {(S)-3-[1-(5-Difluoromethyl-6-methoxy-pyridin-3-yl)-2,3-dihydro-1H-pyrido[3,4-b][1,4]oxazin-7-yloxy]-pyrrolidin-1-yl}-(tetrahydro-pyran-4-yl)-methanone]: the IC50 on PI3K alpha is 38 nM; at PI3K delta, 5 nM.

For `COCC(=O)N1CC[C@H](Oc2cc3c(cn2)OCCN3c2cnc(OC)c(C(F)F)c2)C1` [Example F9, 1-{(S)-3-[1-(5-Difluoromethyl-6-methoxy-pyridin-3-yl)-2,3-dihydro-1H-pyrido[3,4-b][1,4]oxazin-7-yloxy]-pyrrolidin-1-yl}-2-methoxy-ethanone], the values for the IC50 against PI3K alpha and at PI3K delta were 28 nM and under 3 nM, respectively.

Take `COc1ncc(N2CCOc3cnc(O[C@H]4CCN(C(=O)c5cn(C)cn5)C4)cc32)cc1C(F)F` [Example F10, {(S)-3-[1-(5-Difluoromethyl-6-methoxy-pyridin-3-yl)-2,3-dihydro-1H-pyrido[3,4-b][1,4]oxazin-7-yloxy]-pyrrolidin-1-yl}-(1-methyl-1H-imidazol-4-yl)-methanone]: the figures for the IC50 against PI3K alpha and on PI3K delta were 39 nM and under 3 nM, respectively.

For `COCC(=O)N1CC[C@H](Oc2cc3c(cn2)OCCN3c2cnc(S(C)(=O)=O)c(C(F)F)c2)C1` [Example F11, 1-{(S)-3-[1-(5-Difluoromethyl-6-methanesulfonyl-pyridin-3-yl)-2,3-dihydro-1H-pyrido[3,4-b][1,4]oxazin-7-yloxy]-pyrrolidin-1-yl}-2-methoxy-ethanone], the IC50 against PI3K alpha came to 78 nM; against PI3K delta, 76 nM.
